Measured values published in PubChem BioAssay (NCI).
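Assay format: 96-well plates, 48-hour exposure. Abbreviation: GI50, concentration required for 50% inhibition of growth. TGI marks complete inhibition of growth.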

Columns and labels:
Test in all cases: inhibition of tumour cell growth, NCI panel, 48 h
HCC-2998 colon = tested on: HCC-2998 colon
SR leukemia = tested on: SR leukemia
BT-549 breast = tested on: BT-549 breast
HCT-116 colon = tested on: HCT-116 colon
T-47D breast = tested on: T-47D breast
MDA-MB-231 breast = tested on: MDA-MB-231 breast
SK-MEL-28 melanoma = tested on: SK-MEL-28 melanoma
ACHN renal = tested on: ACHN renal
MALME-3M melanoma = tested on: MALME-3M melanoma
A549 NSCLC = tested on: A549 NSCLC
TK-10 renal = tested on: TK-10 renal
786-0 renal = tested on: 786-0 renal
MCF7 breast = tested on: MCF7 breast
HOP-62 NSCLC = tested on: HOP-62 NSCLC
RXF 393 renal = tested on: RXF 393 renal
K-562 leukemia = tested on: K-562 leukemia
SK-MEL-5 melanoma = tested on: SK-MEL-5 melanoma
NCI-H522 lung = tested on: NCI-H522 lung
SF-268 CNS = tested on: SF-268 CNS
HL-60(TB) leukemia = tested on: HL-60(TB) leukemia
NCI-H460 lung = tested on: NCI-H460 lung
COLO 205 colon = tested on: COLO 205 colon
M14 melanoma = tested on: M14 melanoma
EKVX NSCLC = tested on: EKVX NSCLC
SK-OV-3 ovarian = tested on: SK-OV-3 ovarian
LOX IMVI melanoma = tested on: LOX IMVI melanoma
OVCAR-5 ovarian = tested on: OVCAR-5 ovarian
SNB-19 CNS = tested on: SNB-19 CNS
NCI/ADR-RES ovarian = tested on: NCI/ADR-RES ovarian
UACC-62 melanoma = tested on: UACC-62 melanoma
SNB-75 CNS = tested on: SNB-75 CNS
MOLT-4 leukemia = tested on: MOLT-4 leukemia
OVCAR-8 ovarian = tested on: OVCAR-8 ovarian
PC-3 prostate = tested on: PC-3 prostate
SN12C renal = tested on: SN12C renal
SF-539 CNS = tested on: SF-539 CNS
MDA-MB-468 breast = tested on: MDA-MB-468 breast
UO-31 renal = tested on: UO-31 renal
HS 578T breast = tested on: HS 578T breast
DU-145 prostate = tested on: DU-145 prostate
NCI-H23 lung = tested on: NCI-H23 lung
HT29 colon = tested on: HT29 colon
CAKI-1 renal = tested on: CAKI-1 renal
CCRF-CEM leukemia = tested on: CCRF-CEM leukemia
SW-620 colon = tested on: SW-620 colon
MDA-MB-435 = tested on: MDA-MB-435
HOP-92 NSCLC = tested on: HOP-92 NSCLC
OVCAR-3 ovarian = tested on: OVCAR-3 ovarian
NCI-H226 lung = tested on: NCI-H226 lung
U251 CNS = tested on: U251 CNS
UACC-257 melanoma = tested on: UACC-257 melanoma
SK-MEL-2 melanoma = tested on: SK-MEL-2 melanoma
IGROV1 ovarian = tested on: IGROV1 ovarian
OVCAR-4 ovarian = tested on: OVCAR-4 ovarian
SF-295 CNS = tested on: SF-295 CNS
A498 renal = tested on: A498 renal
RPMI-8226 leukemia = tested on: RPMI-8226 leukemia
HCT-15 colon = tested on: HCT-15 colon
KM12 colon = tested on: KM12 colon

COc1cnc2c(c1)C(=O)c1c-2n(CCCNCCO)c(=O)c2cc(OC)c(OC)cc12 was tested, and the GI50 (HCC-2998 colon) was 2.25 µM, the TGI (HCC-2998 colon) was 10.8 µM and the GI50 (SR leukemia) was 0.393 µM. It also gave a TGI (SR leukemia) of 21.5 µM, a GI50 (BT-549 breast) of 9.48 µM and a TGI (BT-549 breast) of 22.9 µM. The GI50 (HCT-116 colon) was 1.15 µM, the TGI (HCT-116 colon) was 2.85 µM and the GI50 (T-47D breast) was 0.746 µM. For the same compound, the TGI (T-47D breast) was 12.3 µM, the GI50 (MDA-MB-231 breast) was 6.52 µM and the TGI (MDA-MB-231 breast) was 20.3 µM. It also gave a GI50 (SK-MEL-28 melanoma) of 13.2 µM, a TGI (SK-MEL-28 melanoma) of 26.2 µM and a GI50 (ACHN renal) of 2.1 µM. For the same compound, the TGI (ACHN renal) was 13.2 µM, the GI50 (MALME-3M melanoma) was 7.2 µM and the TGI (MALME-3M melanoma) was 21.6 µM. For the same compound, the GI50 (A549 NSCLC) was 4.88 µM, the TGI (A549 NSCLC) was 20.7 µM and the GI50 (TK-10 renal) was 15.5 µM. For the same compound, the TGI (TK-10 renal) was 30.1 µM, the GI50 (786-0 renal) was 2.54 µM and the TGI (786-0 renal) was 14.9 µM. The GI50 (MCF7 breast) was 0.174 µM, the TGI (MCF7 breast) was 4.05 µM and the GI50 (HOP-62 NSCLC) was 0.349 µM. For the same compound, the TGI (HOP-62 NSCLC) was 3.78 µM, the GI50 (RXF 393 renal) was 1.52 µM and the TGI (RXF 393 renal) was 5.81 µM. The GI50 (K-562 leukemia) was 0.708 µM, the TGI (K-562 leukemia) was 22.9 µM and the GI50 (SK-MEL-5 melanoma) was 0.72 µM. The TGI (SK-MEL-5 melanoma) was 3.16 µM, the GI50 (NCI-H522 lung) was 0.459 µM and the TGI (NCI-H522 lung) was 3.33 µM. The GI50 (SF-268 CNS) was 0.92 µM, the TGI (SF-268 CNS) was 20.9 µM and the GI50 (HL-60(TB) leukemia) was 0.733 µM. The TGI (HL-60(TB) leukemia) was 13.5 µM, the GI50 (NCI-H460 lung) was 0.423 µM and the TGI (NCI-H460 lung) was 8.75 µM. For the same compound, the GI50 (COLO 205 colon) was 3.33 µM, the TGI (COLO 205 colon) was 20 µM and the GI50 (M14 melanoma) was 3.77 µM. It also gave a TGI (M14 melanoma) of 15.8 µM, a GI50 (EKVX NSCLC) of 6.9 µM and a TGI (EKVX NSCLC) of 20.4 µM. For the same compound, the GI50 (SK-OV-3 ovarian) was 1.62 µM, the TGI (SK-OV-3 ovarian) was 5.98 µM and the GI50 (LOX IMVI melanoma) was 0.475 µM. It also gave a TGI (LOX IMVI melanoma) of 1.9 µM, a GI50 (OVCAR-5 ovarian) of 4.91 µM and a TGI (OVCAR-5 ovarian) of 18.4 µM. The GI50 (SNB-19 CNS) was 1.47 µM, the TGI (SNB-19 CNS) was 15.3 µM and the GI50 (NCI/ADR-RES ovarian) was 16.4 µM. The TGI (NCI/ADR-RES ovarian) was over 100 µM, the GI50 (UACC-62 melanoma) was 1.17 µM and the TGI (UACC-62 melanoma) was 10.4 µM. For the same compound, the GI50 (SNB-75 CNS) was 0.352 µM, the TGI (SNB-75 CNS) was 10.3 µM and the GI50 (MOLT-4 leukemia) was 0.311 µM. It also gave a TGI (MOLT-4 leukemia) of 19.1 µM, a GI50 (OVCAR-8 ovarian) of 3 µM and a TGI (OVCAR-8 ovarian) of 16 µM. The GI50 (PC-3 prostate) was 2.77 µM, the TGI (PC-3 prostate) was 22.2 µM and the GI50 (SN12C renal) was 3.28 µM. It also gave a TGI (SN12C renal) of 16 µM, a GI50 (SF-539 CNS) of 0.492 µM and a TGI (SF-539 CNS) of 2.4 µM. For the same compound, the GI50 (MDA-MB-468 breast) was 1.08 µM, the TGI (MDA-MB-468 breast) was 2.78 µM and the GI50 (UO-31 renal) was 5.96 µM. The TGI (UO-31 renal) was 19.5 µM, the GI50 (HS 578T breast) was 12.1 µM and the TGI (HS 578T breast) was 43.1 µM. It also gave a GI50 (DU-145 prostate) of 0.726 µM, a TGI (DU-145 prostate) of 12.1 µM and a GI50 (NCI-H23 lung) of 0.395 µM. For the same compound, the TGI (NCI-H23 lung) was 2.34 µM, the GI50 (HT29 colon) was 1.46 µM and the TGI (HT29 colon) was 10.9 µM. It also gave a GI50 (CAKI-1 renal) of 1.85 µM, a TGI (CAKI-1 renal) of 16.3 µM and a GI50 (CCRF-CEM leukemia) of 0.268 µM. It also gave a TGI (CCRF-CEM leukemia) of 18.8 µM, a GI50 (SW-620 colon) of 1.37 µM and a TGI (SW-620 colon) of 18.2 µM. For the same compound, the GI50 (MDA-MB-435) was 6.88 µM, the TGI (MDA-MB-435) was 20.7 µM and the GI50 (HOP-92 NSCLC) was 5.07 µM. The TGI (HOP-92 NSCLC) was 20.8 µM, the GI50 (OVCAR-3 ovarian) was 4.52 µM and the TGI (OVCAR-3 ovarian) was 16.9 µM. The GI50 (NCI-H226 lung) was 1.35 µM, the TGI (NCI-H226 lung) was 9.83 µM and the GI50 (U251 CNS) was 0.495 µM. For the same compound, the TGI (U251 CNS) was 10.8 µM, the GI50 (UACC-257 melanoma) was 13.6 µM and the TGI (UACC-257 melanoma) was over 100 µM. For the same compound, the GI50 (SK-MEL-2 melanoma) was 17.1 µM, the TGI (SK-MEL-2 melanoma) was 37.9 µM and the GI50 (IGROV1 ovarian) was 12.1 µM. The TGI (IGROV1 ovarian) was 28 µM, the GI50 (OVCAR-4 ovarian) was 8.24 µM and the TGI (OVCAR-4 ovarian) was 27.6 µM. For the same compound, the GI50 (SF-295 CNS) was 0.418 µM, the TGI (SF-295 CNS) was 12.3 µM and the GI50 (A498 renal) was 12.5 µM. It also gave a TGI (A498 renal) of 25.6 µM, a GI50 (RPMI-8226 leukemia) of 1.73 µM and a TGI (RPMI-8226 leukemia) of 10.5 µM. The GI50 (HCT-15 colon) was 2.74 µM, the TGI (HCT-15 colon) was 14.6 µM and the GI50 (KM12 colon) was 12.4 µM. It also gave a TGI (KM12 colon) of 25.9 µM.
